{"source": "paper PMC8414802", "about": "“Hair Cell Generation in Cochlear Culture Models Mediated by Novel γ-Secretase Inhibitors” (Frontiers in Cell and Developmental Biology, 2021)", "system": "Pou4f3 positive hair cells in cochlear sensory epithelium from P2 rats", "test": "Hair cell counts in rat organ of Corti explants", "assay_type": "cell-based", "settings": "rat OC explants, 4 days, apex/middle/base", "description": "OC explants were isolated from postnatal day 2 (P2) Wistar rats, P0-P2 mice (Lgr5-GFP or Atoh1-nGFP mice). Dissection of the cochlea under a stereomicroscope (Nikon SMZ800, Japan) allowed OC separation from stria vascularis and modiolus, and the sensory epithelium was plated with hair cells facing up on Cell-Tak (Corning, United States)-coated transwell-clear inserts (6-well format, 0.4 μm pore, Corning, United States). Dissection medium was exchanged for 1.5 ml full otic medium supplemented with 10% FBS (Invitrogen) and 0.01% Ampicillin (Sigma), added under the insert membrane, maintaining the OC under a thin film of medium during culture at 37°C. 5-ethyl-2′-deoxyuridine (EdU, 5 μM, Life Technologies) was added directly in the medium when indicated. […]\nDividing cells were labeled with, 5-ethyl-2′-deoxyuridine (EdU) and detected with Click-it Plus kit (Life Technologies). […]\nImage processing was performed with the open-source image processing software FIJI, version 2.0 ([Schindelin et al., 2012]). Hair cells were quantified by counting Pou4f3 or Myo7a positive cells of the organ of Corti at three random microscopic fields for each cochlear region (base, middle, and apex) covering in total at least 1,200 μm. The number of hair cells (IHCs and OHCs) is expressed as unit per 100 μm. […]", "data": [{"smiles": "COc1ccc2c(c1)N1CCC(C)(C)C1=CC(=O)[C@H]2NC(=O)[C@H](C)NC(=O)CCC(F)(F)F", "note": "[CPD3]", "values": [{"measurement": "Region of OHC induction", "result": "limited to the apical region"}]}]}
